Experimental data: US7045551B2 (Bristol-Myers Squibb Company, priority 2002, dated 2006)

How the values were obtained:
mKCNQ2 channels = biological target: T1, mKCNQ2 channels (Mus musculus, UniProt Q9Z351); experiment: Whole-cell patch-clamp recordings of mKCNQ2 currents; format: cell-based; conditions: for EC50: HEK 293 stable cell line expressing mKCNQ2, @ −40 mV, room temperature; for Imax (%): HEK 293 stable cell line expressing mKCNQ2, Imax from Hill-type curve fit
T1 construct: expressed in transfected cells
Procedure: Whole-cell patch-clamp recordings were made from an HEK 293 stable cell line expressing mKCNQ2 channels, maintained in culture for 1–2 days. Patch pipettes had initial resistances of 2.5–4 MΩ. Currents were recorded with an EPC-9 amplifier (HEKA, Lambrecht, Germany) controlled with software (Pulse, HEKA) run on a standard lab PC. Series resistance compensation was used during current recording, and set at 80%. The series resistance (R) and cell capacitance (C) were determined electronically by subtracting the capacitive currents at the onset and offset of a 5 mV voltage step. The cancellation of whole-cell capacitive transients was virtually complete in all cells. Analog current signals were low-pass filtered at 2.9 kHz using a four-pole Bessel filter −3 dB) and stored on a local network server computer at a sampling rate of […]. All recordings were performed at room temperature (20–22° C.). The pipette solution contained (mM): KCl, 150; CaCl2, 2.5; EGTA, 5; MgCl2, 1; HEPES, 10; pH to 7.3 with KOH, and Osmolality of 290–300 mOsm. The extracellular solution contained (mM): NaCl, 140; KCl, 2.5; CaCl2, 2.5; MgCl2, 1; glucose, 10; HEPES, 10; pH to 7.3 with NaOH, and Osmolality of 305–310 mOsm
Concentration response data were generated by measuring the difference in the steady-state amplitude of current in the presence of compound at the end of a 600 ms voltage-clamp step from a holding potential of −80 mV. The concentration-response data were fitted with Hill-type equations: I=Imax/(1+EC50/[A]^nH), where I is the steady-state current at a given concentration of agonist [A]; and Imax, EC50 and nH are parameters estimated from the curve fit. In some cases the concentration-response data were fitted with equations consisting of the sum of two Hill-type components. Current-voltage (I/V) relationships for agonist-evoked currents were obtained by performing 600 ms voltage steps (−110 mV to +40 mV) in the absence and presence of agonist.

[1] = biological target: voltage-gated K+ channel KCNQ2 (Homo sapiens, UniProt O43526); experiment: Thallium flux assay for openers of KCNQ potassium channels; format: cell-based; conditions: 10 point concentration series, concentration required to yield 50% of the maximal response
Text: A thallium flux assay was used to detect and characterize openers of KCNQ potassium channels. The thallium assay is generally described in International application WO 02/31508 published Apr. 18, 2002. More specifically, the thallium influx assay to detect compounds that block or open the voltage-gated K^+ channel KCNQ2 is described in Example IV of the published WO 02/31508 application.
For data analysis, the amplitude of the average of the negative controls was subtracted from all wells. The amplitudes of the test compounds were then compared to the value of four standard deviations of the negative control wells. The lowest concentration of a test compound sufficient to generate a signal amplitude greater than or equal to four standard deviations from the amplitude of the negative controls was defined as the minimal active concentration.
For generating EC50 values, compounds were serially diluted in 1:3 volume increments to produce a 10 point concentration series. EC50 values were calculated by fitting the resulting amplitudes to a single-site logistic equation. EC50 was defined as the concentration of test compound required to yield 50% of the maximal response. Maximal response (Maximal opening) was the largest signal amplitude above the negative control generated by any concentration of a test compound.

| Structure (SMILES) | EC50 (mKCNQ2 channels) [µM] | Imax (%) (mKCNQ2 channels) | EC50 [1] [nM] |
| --- | --- | --- | --- |
| O=C(/C=C/c1ccc(F)cc1F)NC(CO)c1cccc(N2CCOCC2)c1 (stereo in doubt) [Example 18, (R)-3-(2,4-Difluoro-phenyl)-N-[2-hydroxy-1-(3-morpho-lin-4-yl-phen-yl)-ethyl]-acrylamide] | 1.46 | 820 |  |
| O=C(/C=C/c1cccc(F)c1)N[C@@H](CO)c1ccc2ccccc2c1 [Example 47, (R)-3-(3-Fluoro-phenyl)-N-(2-hy-droxy-1-naphthalen-2-yl-eth-yl)-acrylamide] |  |  | 39 |
| O=C(/C=C/c1ccc(F)cc1)N[C@@H](CO)c1ccc2ccccc2c1 [Example 48, (R)-3-(4-Fluoro-phenyl)-N-(2-hy-droxy-1-naphthalen-2-yl-eth-yl)-acrylamide] | 0.619 | 981 | 503 |
| O=C(/C=C/c1ccccc1)N[C@@H](CO)c1ccc2ccccc2c1 [Example 49] |  |  | 354 |
| O=C(/C=C/c1ccc(F)cc1F)N[C@@H](CO)c1ccc2ccccc2c1 [Example 55, (R)-3-(2,4-Difluoro-phen-yl)-N-(2-hydroxy-1-naph-thalen-2-yl-ethyl)-acryl-amide] |  |  | 144 |
| O=C(/C=C/c1ccc(F)c(F)c1)N[C@@H](CO)c1ccc2ccccc2c1 [Example 58, (R)-3-(3,4-Difluoro-phen-yl)-N-(2-hydroxy-1-naph-thalen-2-yl-ethyl)-acryl-amide] |  |  | 892 |
| O=C(/C=C/c1ccccc1Cl)N[C@H](c1ccc2ccccc2c1)[C@H](O)CO [Example 106, (1R,2S)-3-(2-Chloro-phenyl)-N-(2,3-dihydroxy-1-naph-thalen-2-yl-propyl)-acryl-amide] |  |  | 1440 |
| O=C(/C=C/c1ccc(F)cc1F)N[C@H](c1ccc2ccccc2c1)[C@H](O)CO [Example 111, (1R,2S)-3-(2,4-Difluoro-phen-yl)-N-(2,3-dihydroxy-1-naph-thalen-2-yl-propyl)-acryl-amide] |  |  | 980 |
